Measurements from patent US12629355B2, “Drug inhibitor against migration and invasion of cancer cells and methods of treating against metastasis of cancer cells” (HOWARD UNIVERSITY, priority 2019, dated 2026).

Experiments:
Type in all cases: cell-based
[1] = Toxicity judged from DAPI treated cell nucleus in immunofluorescence experiments; settings: 100 μM
Protocol: However, 100 μM might be a high concentration or dosing and may be higher than physiologically potent concentration.

RACK1 protein = target: T1, RACK1 protein (Homo sapiens, UniProt P63244); test: RACK1 protein expression, western blot (FIG. 7); settings: MCF-7 cells, 6 days, compound added on day 1 and day 4
T1 construct: endogenous in cells; host or cells: MCF-7
Protocol: As to FIG. 7, MCF-7 cells were washed three times in PBS after growth on MEM media for 6 days. The indicated compounds were added on day 1 and day 4 of the treatment. The cells were lysed in the lysis buffer (Cell Signaling, MA) supplemented with protease inhibitor cocktail (Sigma-Aldrich), Protein Tyrosine phosphatase inhibitors (Santa Cruz Biotechnology, TX), and N-Ethylamaleimide (Sigma-Aldrich) at 25 mM to inhibit de-sumoylation. Twenty five micrograms of proteins were loaded on the BIORAD company's 4-12% precast polyacrylamide gel, transferred to a PVDF membrane and then blocked with 5% non-fat milk (Biorad) for one hour, washed and incubated overnight at 4 C with the RACK1 antibody (1:2500 dilution) purchased from the Santa Cruz Biotechnology. After overnight incubation, the membrane was washed 3× in PBST and then incubated with a horseradish peroxidase-coupled mouse secondary antibody for an hour at room temperature and the bands were detected with enhanced chemiluminescence (Pierce, Rockford, IL, USA), according to standard methods. […] This served as the loading control.

U251 cells [2] = test: F-actin foci and pY397-FAK organization, immunofluorescence (FIG. 20); settings: 96 h, 2 ng/ml TGF-beta1
From the text: Cell cytoskeleton plays a significant role during the migration and invasion of cancer cells. Changes in the cytoskeleton accompanies the cell shape changes and which subsequently changes the dynamic actin polymerization and depolymerization process. The attachment of cells to the substrate is integrin dependent and as such it was postulated that the RACK1 dependent migration will also regulate the cytoskeleton changes. In this regard, F-actin foci helps stress fiber based directional filipodia development. To visualize F-actin, we used […] that labels the F-actins. FAK located at focal contact which is actin based anchoring junction that links the cells with the ECM and mostly used by motile cells like the metastatic cancer cells. FAK is known as the key regulator of the F-actin dynamics (Li et al., 2013). (Li S Y, et al., Focal adhesion kinase is a regulator of F-actin dynamics: New insights from studies in the testis, Spermatogenesis, 3 (3): e25385 (2013).
The presence of pY397-FAK can be seen in a linear organized way within the migratory structures but such organized presence of the pY397-FAK was not seen in the presence of the representative compound (SD29-14).
As to FIG. 20, and methods, U251 cells were grown on glass coverslip for 96 h in the presence or absence of SD29-14 containing MEM media with 2 ng/ml TGF-beta1 growth factor. […]

[3] = system: RACK1 / LamB1 co-localization; test: Co-localization of RACK1 with ECM protein LamB1, immunofluorescence (FIG. 11); settings: U251 cells, TGFbeta1, 72 h
From the text: For effective migration, cell adhesion to the ECM is necessary and cell surface localized integrin molecules (alpha and beta) act as a link between the ECM and cell interior by acting as a receptor of the ECM proteins and linking ECM to the intracellular cytoskeleton complex. It is known that RACK1 acts as an integrin binding protein (Hermanto et al., 2002) and interaction between RACK1 and β1 integrin has been reported to mediate cancer cell invasion as reported in prostate cancer invasion and metastasis (Trerotola et al., 2012). RACK1 can promote tumor cell migration by using its scaffolding ability to bridge together different signaling proteins that integrate signaling from receptors cytoskeleton reorganization pathways. Laminin being a major ECM protein can therefor interact with integrins for cell adhesion and in this regard is expected to modulate by the RACK1 proteins scaffolding ability as discussed above. […] Lack of colocalization indicate that the link between the ECM proteins and intracellular cytoskeleton complex are interrupted and as such inhibiting this complex mediated migration signaling pathways.
As to FIG. 11, and methods of Immunofluorescence and confocal microscopy, U251 cells were grown to about 80% confluency in 12 well plate on glass cover slips and the cells were co-treated with the TGFb and indicated compounds for 72 h. […]

U251 cells [4] = test: Actin stress fiber development in lamellipodia (FIG. 6); settings: U251 cells grown 72 h, versus DMSO
From the text: Actin stress fibers are known to regulate the mesenchymal migrating cells by regulating the myosin-based contractility to achieve directional cell migration (Vallenius 2013). […] As these stress fibers are needed for other cellular functions required for directional movement, a lack of a visible stress fibers should inhibit cells treated with a representative compound (SD 29-14) from acquiring necessary traction generation to migrate. Actin stress fiber development has been reported to be needed to generate traction forces, establishment of the front-to-back polarity axis, retraction of the trailing edge, and extracellular matrix remodeling-development that collectively regulates the directional movement of migrating cell (Vallenius 2013). The cells were grown 72 h at conditions described for the cells imaged in FIG. 4 and were photographed under a Zeiss brand compound microscope at 40× magnification.

RACK1 protein expression (RACK1 protein): significant of RACK1 proteins
Compound: Nn1c(S)nnc1-c1cc(Cl)cc(Cl)c1 [SD 29-14]
toxicity to cells (uniform DAPI treated cell nucleus, drug treated vs non-treated) [1]: not exposed to a toxic amount | number and intensity of F-actin foci (U251 cells [2]): reduced the number and intensity of the F-actin foci | co-localization of RACK1 and Lamb1 at the cell surface [3]: this interaction was absent | actin stress fiber development in lamellipodia (U251 cells [4]): no visible stress fiber like radiating structures were visible
